{"source": "ChEMBL document CHEMBL2417551", "about": "“Structure-guided design of novel thiazolidine inhibitors of O-acetyl serine sulfhydrylase from Mycobacterium tuberculosis” (J Med Chem, 2013)", "key": {"[1]": {"biological_target": "T1, O-acetylserine sulfhydrylase (Mycobacterium tuberculosis, UniProt P9WP55)", "assay": "Inhibition of Mycobacterium tuberculosis CysK1"}, "[2]": {"biological_target": "T1, O-acetylserine sulfhydrylase", "description": "Inhibition of Mycobacterium tuberculosis N-terminal His-6-tagged recombinant CysK1 expressed in Escherichia coli BL21 (DE3) after 20 mins by spectrophotometric analysis"}, "[3]": {"biological_target": "O-acetylserine sulfhydrylase (Mycobacterium tuberculosis) (UniProt P9WP55)", "settings": "at 500 nM", "description": "Inhibition of Mycobacterium tuberculosis N-terminal His-6-tagged recombinant CysK1 expressed in Escherichia coli BL21 (DE3) at 500 nM after 20 mins by spectrophotometric analysis"}, "[4]": {"biological_target": "O-acetylserine sulfhydrylase (Mycobacterium tuberculosis) (UniProt P9WP55)"}, "[5]": {"biological_target": "O-acetylserine sulfhydrylase (Mycobacterium tuberculosis) (UniProt P9WP55)", "remark": "listed apart in the source"}, "[6]": {"assay": "Lipophilicity, log P of the compound", "type": "physicochemical", "settings": "octanol/water"}}, "note": "pIC50: −log10 of the molar value."}
{"smiles": "CN1C(=O)/C(=C/c2ccccc2OCC(=O)O)S/C1=N\\c1cccc(C(=O)O)c1", "values": [{"measurement": "pIC50", "setting": "[1]", "result": 6.99}]}
{"smiles": "CN1C(=O)/C(=C/c2ccc(O)cc2)S/C1=N\\c1cccc(C(=O)O)c1", "values": [{"measurement": "pIC50", "setting": "[2]", "result": 7.20}, {"measurement": "inhibition", "setting": "[3]", "result": 92.6, "unit": "%"}]}
{"smiles": "COc1ccc(/C=C2\\S/C(=N\\c3cccc(C(=O)O)c3)N(C)C2=O)cc1OC", "values": [{"measurement": "pIC50", "setting": "[2]", "result": 7.27}, {"measurement": "inhibition", "setting": "[3]", "result": 89.7, "unit": "%"}]}
{"smiles": "CN1C(=O)/C(=C/c2ccc(OCc3ccccc3)cc2)S/C1=N\\c1cccc(C(=O)O)c1", "values": [{"measurement": "pIC50", "setting": "[2]", "result": 7.59}, {"measurement": "inhibition", "setting": "[3]", "result": 91.5, "unit": "%"}]}
{"smiles": "CC(C)N1C(=O)/C(=C/c2ccc(O)cc2)S/C1=N\\c1cccc(C(=O)O)c1", "values": [{"measurement": "pIC50", "setting": "[2]", "result": 6.85}, {"measurement": "inhibition", "setting": "[3]", "result": 90.3, "unit": "%"}]}
{"smiles": "CN1C(=O)/C(=C/c2ccc(F)cc2)S/C1=N\\c1cccc(C(=O)O)c1", "values": [{"measurement": "pIC50", "setting": "[2]", "result": 7.72}, {"measurement": "inhibition", "setting": "[3]", "result": 89.5, "unit": "%"}, {"measurement": "Ratio IC50", "setting": "[4]", "result": 150}, {"measurement": "Ratio IC50", "setting": "[5]", "result": 5}, {"measurement": "logP", "setting": "[6]", "result": 2.7}]}
{"smiles": "COc1ccccc1/C=C1\\S/C(=N\\c2cccc(C(=O)O)c2)N(C)C1=O", "values": [{"measurement": "pIC50", "setting": "[2]", "result": 6.80}, {"measurement": "inhibition", "setting": "[3]", "result": 96.9, "unit": "%"}]}
{"smiles": "CC[C@H](C)[C@H](NC(=O)[C@H](CO)NC(=O)[C@H](Cc1ccccc1)NC(=O)[C@@H](N)CC(=O)O)C(=O)O", "values": [{"measurement": "pIC50", "setting": "[1]", "result": 5.54}]}
